Measurements: patent US8242152B2, “Use of 4-[(4-thiazolyl)phenoxy]alkoxy-benzamidine derivatives for the prophylaxis and treatment of osteoporosis” (Dong Wha Pharmaceutical Co., Ltd., priority 2001, dated 2012)
pIC50: −log10 of the molar value. Where “and” joins values, the source holds several entries; their conditions need not be identical. Equal entries are not always repeated. Where two headings read alike, the source gives them in different places.

Assays:
osteoclast fusion [1] = test: Fusion assay of prefusion osteoclasts (Example 2); assay type: cell-based, mice; conditions: 24 hrs; for inhibition at 0.08 µM / inhibition at 0.4 µM / inhibition at 2 µM / inhibition at 10 µM: read-out: Inhibitory action (%)
From the text: This assay is designed to evaluate the influences of each test substance in terms of osteoclast fusion during the differentiation process in which immature prefusion osteoclasts (pOC; osteoclast structure with one more nuclei) were transformed into mature multinucleated osteoclast (OCL) via cell to cell fusion (Gregg Wesolowski et al. Experimental Cell Research 219,679-686, 1995).
The prefusion osteoclast can be obtained via co-culture of both bone marrow cells and osteoblast, as prepared from Example 1. The mixture of both osteoblast (about 5×10^5 cells/plate) and bone marrow cells (about 1×10^7 cells/plate) were co-cultured in a 100 mm culture dish. Some differentiation factors, such as dexamethasone (10^−6M) and vitamin D3 (10^−9M), were added to the medium from the first day of culture. The medium was changed with a fresh medium containing differentiation factors every 2 days.
Since a great number of the prefusion osteoclasts having one or more nuclei in fusion process were formed during 4-day co-culture, the cells were separated and co-cultivation after 4 days. The medium was removed from the cells and with the addition of 0.2% collagenase solution (4 mL), the cells were incubated at 37° C. for 20 mins to separate the attachment cells. Since the majority of separated cells were osteoblasts, all osteoblasts were washed with PBS solution two or three times for their complete removal.
After the remaining prefusion osteoclasts were separated via reaction for 20 mins with the addition of echistatin containing 10% BSA, the cells were harvested by centrifuge.
The test substances diluted at each concentration were diluted at the desired concentration in α-MEM medium (addition of 10% FBS) to load them into a 96-well microplate in a dose of 100 uL per well. The osteoclastic monocytes, so separated from the preceding No. 1, were plated on a 96-well microplate in a dose of 5×10^3 cell/100 uL per well and cultured at 37° C. for 24 hrs, thus successfully resulting in the osteoclast fusion. In the case of specimen-free and positive controls, experiments were performed in the same manner as above.
The medium was removed from the cells and then the cells were washed once with PBS and fixed to a PBS solution containing 10% formalin for about 5 mins. The cells were again fixed to both ethanol and acetone (1/1) in a mixing solution for about 5 mins and dried off. The cells were further treated by TRAP staining solution for 15 mins and washed with water to observe the cells under the microscope. The TRAP-positive osteoclast counts, which were differentiated from monocyte to multinucleated cells (osteoclast having more than 10 nuclei) via fusion process, were measured.

osteoclast fusion [2] = test: Osteoclast fusion assay with purified prefusion osteoclasts (Example 5); assay type: cell-based, mice; conditions: for inhibition at 0.08 µM / inhibition at 0.4 µM / inhibition at 2 µM / inhibition at 10 µM: read-out: Inhibitory action (%)
Description: The effect of the compounds on the fusion of osteoclasts was examined using purified prefusion osteoclasts (pOC, mononuclear and binuclear osteoclasts). Co-cultures of bone marrow cells (2×10^7 cells/dish) and newborn mice calvariae (1×10^6 cells/dish) were maintained in 100-mm-diameter dishes for 4 days with osteoclast differontiarion factor. Cultures were washed twice with PBS and treated with 0.1% collagenase/dispase at 37° C. for 20 minutes. Released cells, mostly osteoblasts, were removed with a pipet and the plates were washed three times with PBS. The remaining cells were incubated with 30 uM echistatin in α-MEM containing 1% BSA for 20 min at 37° C. These cells were collected, pelleted, and washed once with α-MEM containing 10% FBS. The cells released by this treatment were the subject of the fusion assay. More than 90% of the cells in the pOCs preparation used in the present study were positive for TRAP.
pOCs (15,000 cells/well) were plated on 96 well culture plates with or without various compounds. After culture for 18 hours, the cells were fixed and stained for TRAP.

[3] = tested on: osteoclast differentiation; test: Osteoclast differentiation, co-culture, TRAP(+)MNCs (Example 5); assay type: cell-based, mice; conditions: for % inhibitory action / inhibition at 0.01 µM / inhibition at 0.1 µM / inhibition at 1 µM: day 6; for inhibition at 0.01 µM / inhibition at 0.1 µM / inhibition at 1 µM: Mus musculus, Osteoclast, 144 h, read-out: % inhibitory action
Description: To investigate the effect of compounds on osteoclast differentiation, co-culture between bone marrow cells (2.5×10^5 cells/cm^2) and calvaria-derived osteoblastic cells (4×10^4 cells/cm^2) was conducted in the presence of 1.25(OH)2D3(10^−8 M) and dexamethasone (10^−7 M) with α-MEM containing 10% FBS (referred as “osteoclastic medium”). Bone marrow cells were isolated from the femora of 6-week-old ddY mice and primary osteoblastic cells were isolated from the calvariae of newborn ICR mice by sequential digestion with 0.2% collagenase. The medium was changed every two days with fresh osteoclastic medium. An index of osteoclast formation was determined by counting TRAP-positive multinucleated osteoclasts (TRAP(+)MNCs). On day 6, the cells were fixed with 10% formaldehyde and stained for TRAP. The number of TRAP(+) MNCs containing more than 6-7 nuclei was counted under a microscope (ZEISS Axiovert 25, Switzerland). The results are shown as the relative inhibitory activity (% inhibition) compared to the control group.

[4] = tested on: osteoclast activity (resorption pits); test: Bone resorption pit formation assay on dentine slice (Example 5); assay type: cell-based, mice; conditions: for Inhibitory activity (%) / inhibition at 0.01 µM / inhibition at 0.1 µM / inhibition at 1 µM: dentine slice, 24 h; for inhibition at 0.01 µM / inhibition at 0.1 µM / inhibition at 1 µM: Mus musculus, Osteoclast, read-out: Inhibitory activity (%)
Description: Method for evaluating the effects of the compounds on osteoclast activity: Multinucleated osteoclasts were developed on collagen gel plates by co-culture system as described. On day 6-8 of the co-culture, multinucleated OCLs were detached from plates by 0.2% collagenase treatment (“crude OCLs”). Crude OCLs suspended in α-MEM containing 10% FBS were placed on a dentine slice (4 mm diameter) in a 96-well culture plate. […] At the end of the incubation, cells were removed by 1 M NH4OH treatment and resorption pits formed (in the slices stained with Mayer's hematoxylin). Resorption pits were enumerated with an image analyzer and compared to the control group.

[5] = tested on: Primary osteoblastic cells; test: ALP activity in primary osteoblastic cells (Example 5); assay type: cell-based, ICR mice; conditions: for ALP activity (% of control) / ALP activity (Unit): 3 days
Description: Primary osteoblastic cells isolated from the calvariae of newborn ICR mice were grown to confluence in α-MEM containing 10% FBS. These cells were plated at a density of 1×10^5/ml in tissue culture dishes. After 24 h, cells were changed with a differentiation medium containing ascorbic acid (50 ug/ml) and β-glycerophosphate (10 mM) with or without the compounds and further cultured for 3 days. Cells were washed twice with PBS and harvested. For the measurement of ALP activity and total protein content, cells were extracted into 0.1% Triton X-100 in PBS containing 1 mM MgCl2 and centrifuged at 1.000×g for 5 minutes. Enzyme activity was determined in supernatants by colorimetric procedure using p-nitrophenyl phosphate (PNP) as a substrate at a wavelength of 405 nm and the protein content was determined by a Bio-Rad protein assay kit. The ALP unit was expressed as nmol PNP/ug protein/min.

LTB4 receptor = LTB4 receptor (Homo sapiens, UniProt Q15722); parameters: endogenous in cells; host or cells: human neutrophils (PMN) purified from fresh blood; conditions: cited from earlier work
Chain of LTB4 receptor (Q15722 whole entry): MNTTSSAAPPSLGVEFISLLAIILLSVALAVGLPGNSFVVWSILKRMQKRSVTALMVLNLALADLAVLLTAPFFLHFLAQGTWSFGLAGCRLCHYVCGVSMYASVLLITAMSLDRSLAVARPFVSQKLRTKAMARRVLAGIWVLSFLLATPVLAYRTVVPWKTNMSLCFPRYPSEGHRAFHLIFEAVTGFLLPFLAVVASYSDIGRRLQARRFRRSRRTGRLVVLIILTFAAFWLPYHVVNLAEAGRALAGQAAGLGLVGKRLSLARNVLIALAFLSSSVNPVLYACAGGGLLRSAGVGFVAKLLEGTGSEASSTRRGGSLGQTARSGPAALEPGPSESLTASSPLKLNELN

[6] = Mus musculus, Osteoclast, 0.08 uM
[7] = Mus musculus, Osteoclast, 0.4 uM
[8] = Mus musculus, Osteoclast, 10 uM
[9] = Mus musculus, Osteoclast, 0.08 uM, 18 hours
[10] = Mus musculus, Osteoclast, 0.4 uM, 18 hours
[11] = Mus musculus, Osteoclast, 2 uM, 18 hours
[12] = Mus musculus, Osteoclast, 10 uM, 18 hours

For “4-[5-[4-(aminoiminomethyl)phenoxy]pentoxy]-3-methoxy-N,N-bis(1-methylethyl)benzamide maleic acid [CGS-25019C]”, the “Inhibitory action (%)” value (osteoclast fusion [1]; 0.08 uM) was 10.14%, the “Inhibitory action (%)” value (osteoclast fusion [1]; 0.4 uM) was 13.04% and the “Inhibitory action (%)” value (osteoclast fusion [1]; 2 uM) was 13.77%. For the same molecule, the “Inhibitory action (%)” value (osteoclast fusion [1]; 10 uM) was 12.32%, the “Inhibitory action (%)” value (osteoclast fusion [2]; 0.08 uM, 18 hours) was 10.14% and the “Inhibitory action (%)” value (osteoclast fusion [2]; 0.4 uM, 18 hours) was 13.04%. The “Inhibitory action (%)” value (osteoclast fusion [2]; 2 uM, 18 hours) was 13.77%, the “Inhibitory action (%)” value (osteoclast fusion [2]; 10 uM, 18 hours) was 12.32% and the “% inhibitory action” value ([3]; 0.01 uM) was 11.2%. The “% inhibitory action” value ([3]; 0.1 uM) was 29.5%, the “% inhibitory action” value ([3]; 1 uM) was 36.9% and the “Inhibitory activity (%)” value ([4]; 0.01 uM) was 0(−24) %. For the same molecule, the “Inhibitory activity (%)” value ([4]; 0.1 uM) was 10.4%, the “Inhibitory activity (%)” value ([4]; 1 uM) was 24.8% and the “ALP activity (% of control)” value ([5]; 0.01 uM) was 121.3 % of control. For the same molecule, the “ALP activity (Unit)” value ([5]; 0.01 uM) was 20.6 nmol PNP/ug protein/min, the “ALP activity (% of control)” value ([5]; 0.1 uM) was 115.3 % of control and the “ALP activity (Unit)” value ([5]; 0.1 uM) was 19.7 nmol PNP/ug protein/min.
Cc1nc(-c2ccc(OCCCCOc3ccc(C(=N)NO)cc3)cc2)c(C(C)C)s1 [DW1349, N— hydroxy-4-{4-[4-(5-isopropyl-2-methyl-1,3-thiazol-4-yl)phenoxy]butoxy}-benzamidine] showed an inhibition at 0.08 µM (osteoclast fusion [1]; [6]) of 0%, an inhibition at 0.4 µM (osteoclast fusion [1]; [7]) of 2.3% and an inhibition at 2 µM (osteoclast fusion [1]; Mus musculus, Osteoclast, 2 uM) of 4.5%. For the same molecule, the inhibition at 10 µM (osteoclast fusion [1]; [8]) was 18%, the “Inhibition (%) of LTB4 receptor binding” value (LTB4 receptor; 100 nM) was 32.7% and the “Inhibition (%) of LTB4 receptor binding” value (LTB4 receptor; 1 uM) was 87.2%. The inhibition at 0.08 µM (osteoclast fusion [2]; [9]) was 0%, the inhibition at 0.4 µM (osteoclast fusion [2]; [10]) was 2.3% and the inhibition at 2 µM (osteoclast fusion [2]; [11]) was 4.5%. For the same molecule, the inhibition at 10 µM (osteoclast fusion [2]; [12]) was 18%, the inhibition at 0.01 µM ([3]; 0.01 uM) was 31.9% and the inhibition at 0.1 µM ([3]; 0.1 uM) was 46.8%. For the same molecule, the inhibition at 1 µM ([3]; 1 uM) was 85.5%, the inhibition at 0.01 µM ([4]; 0.01 uM) was 19.3% and the inhibition at 0.1 µM ([4]; 0.1 uM) was 36.1%. The inhibition at 1 µM ([4]; 1 uM) was 64.7%, the “ALP activity (% of control)” value ([5]; 0.01 uM) was 113.2 % of control and the “ALP activity (Unit)” value ([5]; 0.01 uM) was 19.0 nmol PNP/ug protein/min. The “ALP activity (% of control)” value ([5]; 0.1 uM) was 101.6 % of control and the “ALP activity (Unit)” value ([5]; 0.1 uM) was 17.2 nmol PNP/ug protein/min.
With Cc1nc(-c2ccc(OCCCCCOc3ccc(C(=N)NO)cc3)cc2)c(C(C)C)s1 [DW1350, N-hydroxy-4-{5-[4-(5-isopropyl-2-methyl-1,3-thiazol-4-yl)phenoxy]pentoxy}-benzamidine] the inhibition at 0.08 µM (osteoclast fusion [1]; [6]) was 4.5%, the inhibition at 0.4 µM (osteoclast fusion [1]; [7]) was 25.6% and the inhibition at 2 µM (osteoclast fusion [1]; Mus musculus, Osteoclast, 2 uM) was 80%. The inhibition at 10 µM (osteoclast fusion [1]; [8]) was 98%, the pIC50 (osteoclast fusion [1]; Mus musculus, Osteoclast) was 6.09 and the “Inhibition (%) of LTB4 receptor binding” value (LTB4 receptor; 100 nM, 0.1 µM) was 10% and < 10%. For the same molecule, the “Inhibition (%) of LTB4 receptor binding” value (LTB4 receptor; 100 nM, listed as 1350, 0.1 µM) was <10%, the “Inhibition (%) of LTB4 receptor binding” value (LTB4 receptor; 1 uM) was 92.3% and the “times stronger inhibition of osteoclast fusion than DW1349” value (osteoclast fusion [2]; 2 uM, versus DW1349) was 17.8 times. For the same molecule, the inhibition at 0.08 µM (osteoclast fusion [2]; [9]) was 4.5%, the inhibition at 0.4 µM (osteoclast fusion [2]; [10]) was 25.6% and the inhibition at 2 µM (osteoclast fusion [2]; [11]) was 80%. For the same molecule, the inhibition at 10 µM (osteoclast fusion [2]; [12]) was 98%, the pIC50 (osteoclast fusion [2]; Mus musculus, Osteoclast, 18 hours) was 6.09 and the “times more inhibition of osteoclast fusion than DW1351” value (osteoclast fusion [2]; versus DW1351) was “two fold better inhibitor”. For the same molecule, the inhibition at 0.01 µM ([3]; 0.01 uM) was 38.5%, the inhibition at 0.1 µM ([3]; 0.1 uM) was 62.7% and the inhibition at 1 µM ([3]; 1 uM) was 88.7%. The “times more inhibition of osteoclast differentiation than DW1349” value ([3]; versus DW1349, Table 8) was 1.34 times, the “times stronger inhibition of osteoclast differentiation than DW1351” value ([3]; versus DW1351, Table 8) was “about two times better” and the inhibition at 0.01 µM ([4]; 0.01 uM) was 45.2%. The inhibition at 0.1 µM ([4]; 0.1 uM) was 52.6%, the inhibition at 1 µM ([4]; 1 uM) was 72.6% and the “times better than DW1349 in inhibiting osteoclast activity” value ([4]; versus DW1349, Table 10) was “about 1.45 times”. The “times more inhibition of osteoclast activity than DW1351” value ([4]; versus DW1351, Table 10) was “two-fold better inhibitor”, the “ALP activity (% of control)” value ([5]; 0.01 uM) was 141.9 % of control and the “ALP activity (Unit)” value ([5]; 0.01 uM) was 24.4 nmol PNP/ug protein/min. For the same molecule, the “ALP activity (% of control)” value ([5]; 0.1 uM) was 153.7 % of control, the “ALP activity (Unit)” value ([5]; 0.1 uM) was 26.7 nmol PNP/ug protein/min and the “times better stimulator of osteoblast activity (ALP) than DW1349” value ([5]; versus DW1349) was 1.25 times. For the same molecule, the “times greater stimulation of osteoblast activity (ALP) than DW1351 and DW1352” value ([5]; versus DW1351 and DW1352) was 1.15˜1.25 times.
